# Source: patent publication US10538561B2, “Peptide for treating inflammatory diseases” (priority 2015, dated 2020)
# What was measured:
# [1] = target: MAP2K1 (MEK1) (Homo sapiens, UniProt Q02750); assay: Biochemical kinase assay MAP2K1
# Procedure: (§1) Test system: cell free assays; test items: IS181; concentrations tested: 1 ng/ml-5000 μg/ml; Kinases: a) Cell free assays: EGFR (ErbB1); FLT1 (VEGFR1); JAK1; JAK3 MAP2K1 (MEK1); PDGFRA (PDGFR alpha); PRKCA (PKC alpha); b) cell based assay: JAK-STAT.
# [2] = tested on: Human Keratinocytes (HaCaT); assay: Cell cycle assay (Sub-G0/G1); type: cell-based; conditions: 48 h
# Procedure: Cell lines: Human Keratinocytes (HaCaT); test Item: IS181; treatment regimen: treated twice (once after 24 hours)-48 hours; concentration range: 100 6 g/ml-5000 6 g/ml. […] Cells were treated with IS181 for 24 hours. After 24 h, cells were again treated with IS181 for 24 hours. After 48 h of first treatment, cells were harvested and fixed in ethanol overnight. Cells were washed and stained with Cell cycle reagent and acquired on flow cytometer. […] Positive control: Curcumin.
# [3] = tested on: Human Keratinocytes (HaCaT); assay: Annexin-V assay; type: cell-based; conditions: 48 h
# Procedure: Cell lines: Human Keratinocytes (HaCaT); test Item (TI): IS181; Treatment regimen: treated twice (once after 24 hours)-48 hours; concentration range: 100 6 g/ml-5000 6 g/ml. […] (c) cells were treated with IS181 for 24 hours; (d) after 24 hours, cells were again treated with IS181 for 24 hours; (e) after 48 hours of first treatment, cells were stained with Annexin-V reagent and acquired on flow cytometer; (f) fold increase in apoptotic cells (early and late apoptotic) and necrotic cells was calculated with respect to untreated control cells. Positive control: Curcumin. […] (FIG. 4)
# [4] = tested on: IL-8; assay: LPS+PMA stimulated IL-8 secretion in HaCaT; type: cell-based, Human; conditions: for IL-8 % decrease with respect to LPS + PMA / IL-8 Conc: HaCaT + LPS + PMA, 24 h
# Procedure: (§2) Effect on pro-inflammatory cytokines against TNF-α/LPS+PMA stimulation: TNF-α; IFN-γ; TARC; TSLP; IL-6; IL-8: Cell lines: Human keratinocytes (HaCaT); test item (TI); IS181; experimental steps: pre-treatment of cells with TI for 2 hours; stimulation with TNF-α: 20 ng/ml; stimulation with LPS+PMA-10 μg/ml LPS+40 ng/ml PMA; supernatant collection for cytokine analysis after 24 hours; concentration range: 0.1 μg/ml-100 μg/ml (duplicate wells); cytokines: TNF-α; IFN-γ; TARC; TSLP; IL-6; IL-8. Method of estimating cytokines: ELISA; positive control: dexamethasone.
# (§3) Cell line: HaCaT (Human Keratinocytes); TI Treatment regimen: Pretreatment for 2 h; TI Concentration range: 0.1 μg/ml-100 μg/ml (duplicate wells); TNF-α stimulation: 20 ng/ml; LPS+PMA stimulation: 10 μg/ml LPS+40 ng/ml PMA; Time point for supernatants collection: 24 h; Method of estimation: ELISA; Positive control: Dexamethasone
# [5] = tested on: TARC; assay: TNF-α stimulated TARC secretion in HaCaT; type: cell-based, Human; conditions: for TARC % decrease with respect to TNF-α / TARC Conc: HaCaT + TNF-α, 24 h
# Procedure: as §2, §3
# [6] = target: FLT1 (VEGFR1) (Homo sapiens, UniProt P17948); assay: Biochemical kinase assay FLT1; conditions: cell free
# Procedure: as §1
# [7] = Maximum feasible concentration and formulation stability; type: physicochemical
# Procedure: The solution stability of peptide IS 181 was performed in four different diluents at three different temperatures for 24 hours. Four different pre-formulations of concentration 10 mg/ml were prepared and formulation assay was performed at initial and […] at room temperature.
# [8] = tested on: mouse splenocytes; assay: Cell viability of splenocytes (MTT); type: cell-based; conditions: splenocytes
# Procedure: (§4) Cell lines: mouse splenocytes; test item: IS181; treatment regimen: single addition—24 hours; concentration range: 10 μg/ml-5000 μg/ml.A) Identification of non-cytotoxic concentrations: splenocytes were treated with IS181 for 24 hours. Effect on cell viability was assessed by MTT assay. Concentrations leading to >75% cell viability were selected for IL-17 assay. B) IL-17 assay: splenocytes were treated with IS181 in presence of ConA stimulation for 24 hours. Supernatants were collected and stored at −20° C. till analysed. Levels of IL-17 were analysed in supernatants by ELISA. Percent inhibition of IL-17 secretion was calculated with reference to ConA treated levels. Positive control: curcumin.
# [9] = Cell viability of splenocytes (MTT); type: cell-based, mouse; conditions: mouse, mouse splenocytes, splenocytes, 24 h
# Procedure: as §4
# [10] = 10% v/v Propylene glycol in 0.9% NaCl (for IM& SC)
# FLT1 (VEGFR1), sequence (P17948 27-1338): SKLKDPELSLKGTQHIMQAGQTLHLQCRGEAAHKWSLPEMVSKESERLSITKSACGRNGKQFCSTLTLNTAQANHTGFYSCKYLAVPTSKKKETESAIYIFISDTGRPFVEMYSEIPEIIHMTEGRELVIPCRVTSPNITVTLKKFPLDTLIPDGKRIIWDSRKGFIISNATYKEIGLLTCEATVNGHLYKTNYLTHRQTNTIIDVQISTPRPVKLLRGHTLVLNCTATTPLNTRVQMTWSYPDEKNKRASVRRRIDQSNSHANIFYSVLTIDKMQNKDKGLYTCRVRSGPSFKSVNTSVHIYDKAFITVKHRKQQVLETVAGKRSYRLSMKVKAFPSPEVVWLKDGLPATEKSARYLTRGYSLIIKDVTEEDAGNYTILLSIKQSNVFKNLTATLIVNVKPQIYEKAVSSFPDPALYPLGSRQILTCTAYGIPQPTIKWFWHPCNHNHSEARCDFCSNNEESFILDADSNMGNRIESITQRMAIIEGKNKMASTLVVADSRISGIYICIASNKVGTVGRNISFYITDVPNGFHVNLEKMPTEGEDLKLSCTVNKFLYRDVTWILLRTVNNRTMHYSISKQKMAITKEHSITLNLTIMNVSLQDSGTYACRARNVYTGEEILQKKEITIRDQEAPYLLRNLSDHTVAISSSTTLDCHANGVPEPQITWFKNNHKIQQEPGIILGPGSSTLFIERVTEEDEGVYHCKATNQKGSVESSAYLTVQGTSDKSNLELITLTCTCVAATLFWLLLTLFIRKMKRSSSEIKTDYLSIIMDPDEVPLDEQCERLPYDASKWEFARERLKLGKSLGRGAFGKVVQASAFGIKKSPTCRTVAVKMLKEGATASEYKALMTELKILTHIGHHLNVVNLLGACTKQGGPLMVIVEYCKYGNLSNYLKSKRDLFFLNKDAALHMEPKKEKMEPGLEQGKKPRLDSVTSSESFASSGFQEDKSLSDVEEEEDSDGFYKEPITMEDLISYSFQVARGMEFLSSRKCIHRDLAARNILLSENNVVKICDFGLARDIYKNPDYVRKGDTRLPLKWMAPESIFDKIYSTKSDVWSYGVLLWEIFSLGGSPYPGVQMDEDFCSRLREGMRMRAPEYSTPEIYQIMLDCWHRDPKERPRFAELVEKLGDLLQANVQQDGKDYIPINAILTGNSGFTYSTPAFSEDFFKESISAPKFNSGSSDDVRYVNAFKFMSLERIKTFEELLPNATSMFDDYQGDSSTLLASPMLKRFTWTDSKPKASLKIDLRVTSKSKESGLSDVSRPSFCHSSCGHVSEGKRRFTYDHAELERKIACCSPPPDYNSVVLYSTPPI
# MAP2K1 (MEK1), sequence (Q02750 whole entry): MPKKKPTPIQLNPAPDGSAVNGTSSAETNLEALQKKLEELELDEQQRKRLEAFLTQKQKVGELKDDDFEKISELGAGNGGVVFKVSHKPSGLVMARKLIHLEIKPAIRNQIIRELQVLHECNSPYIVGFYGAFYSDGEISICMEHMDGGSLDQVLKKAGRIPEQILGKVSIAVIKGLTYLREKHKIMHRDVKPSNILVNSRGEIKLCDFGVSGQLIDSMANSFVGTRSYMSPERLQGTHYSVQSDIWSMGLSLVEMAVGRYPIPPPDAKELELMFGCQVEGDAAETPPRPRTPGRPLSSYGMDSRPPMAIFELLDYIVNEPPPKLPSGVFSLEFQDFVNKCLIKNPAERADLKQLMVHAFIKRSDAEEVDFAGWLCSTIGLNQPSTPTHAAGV
substance,measurement,setting,value
"H-WVQRVVEKFLK-OH [IS181, H-Trp-Val-Gln-Arg-Val-Val-Glu-Lys-Phe-Leu-Lys-OH]",inhibition of MAP2K1 (MEK1),[1]; 10 μg/ml-5000 μg/ml,23%-49%
same,inhibition at 50 µg/mL,"[1]; cell free, 50 μg/ml",49%
same,inhibition at 100 µg/mL,"[1]; cell free, 100 μg/ml",26%
same,inhibition at 250 µg/mL,"[1]; cell free, 250 μg/ml",30%
same,inhibition at 500 µg/mL,"[1]; cell free, 500 μg/ml",23%
same,inhibition at 1000 µg/mL,"[1]; cell free, 1000 μg/ml",13%
same,inhibition at 2000 µg/mL,"[1]; cell free, 2000 μg/ml",-16%
same,inhibition at 5000 µg/mL,"[1]; cell free, 5000 μg/ml",-81%
same,increase in pro-apoptotic cells (Sub-G0/G1 population) vs untreated,[2]; 100 μg/ml,9.1 fold
same,increase in pro-apoptotic cells (Sub-G0/G1 population) vs untreated,[2]; 500 μg/ml,7.1 fold
same,increase in pro-apoptotic cells (Sub-G0/G1 population) vs untreated,[2]; 1000 μg/ml,2.3 fold
same,increase in pro-apoptotic cells (Sub-G0/G1 population) vs untreated,[2]; 5000 μg/ml,29.7 fold
same,increase in late apoptotic cells vs untreated,[3]; 2000 μg/ml,2.1 fold
same,increase in necrotic cells vs untreated,[3]; 2000 μg/ml,7.9 fold
same,increase in early apoptotic cells vs untreated,[3]; 5000 μg/ml,2.3 fold
same,increase in late apoptotic cells vs untreated,[3]; 5000 μg/ml,5.3 fold
same,increase in necrotic cells vs untreated,[3]; 5000 μg/ml,4.5 fold
same,IL-8 inhibition,[4]; HaCaT,good extent of TSLP and IL-8 inhibition
same,IL-8 % decrease with respect to LPS + PMA,[4]; 0.1 μg/ml,8.8%
same,IL-8 Conc,[4]; 0.1 μg/ml,357.4 pg/mL
same,IL-8 % decrease with respect to LPS + PMA,[4]; 1 μg/ml,19.8%
same,IL-8 Conc,[4]; 1 μg/ml,314.5 pg/mL
same,IL-8 % decrease with respect to LPS + PMA,[4]; 5 μg/ml,4.3%
same,IL-8 Conc,[4]; 5 μg/ml,375.3 pg/mL
same,IL-8 % decrease with respect to LPS + PMA,[4]; 10 μg/ml,19.4%
same,IL-8 Conc,[4]; 10 μg/ml,316.1 pg/mL
same,IL-8 % decrease with respect to LPS + PMA,[4]; 100 μg/ml,−18.1%
same,IL-8 Conc,[4]; 100 μg/ml,463.1 pg/mL
same,TARC inhibition,[5]; HaCaT,good extent of IFN-γ and TARC inhibition
same,TARC % decrease with respect to TNF-α,[5]; 0.1 μg/ml,28.6%
same,TARC Conc,[5]; 0.1 μg/ml,43.2 pg/mL
same,TARC % decrease with respect to TNF-α,[5]; 1 μg/ml,11.3%
same,TARC Conc,[5]; 1 μg/ml,53.6 pg/mL
same,TARC % decrease with respect to TNF-α,[5]; 5 μg/ml,1.5%
same,TARC Conc,[5]; 5 μg/ml,59.5 pg/mL
same,TARC % decrease with respect to TNF-α,[5]; 10 μg/ml,5.3%
same,TARC Conc,[5]; 10 μg/ml,57.3 pg/mL
same,TARC % decrease with respect to TNF-α,[5]; 100 μg/ml,−22.6%
same,TARC Conc,[5]; 100 μg/ml,74.1 pg/mL
same,inhibition at 50 µg/mL,[6]; 50 μg/ml,44%
same,inhibition at 100 µg/mL,[6]; 100 μg/ml,-16%
same,inhibition at 250 µg/mL,[6]; 250 μg/ml,-28%
same,inhibition at 500 µg/mL,[6]; 500 μg/ml,-44%
same,inhibition at 1000 µg/mL,[6]; 1000 μg/ml,-110%
same,MFC,[7]; 0.9% NaCl (for IV),>25.0 mg/mL
same,Stability of formulation at RT,[7]; 0.9% NaCl (for IV),Up to 24 hrs
same,MFC,[7]; [10],>25.0 mg/mL
same,Stability of formulation at RT,[7]; [10],Up to 24 hrs
same,cytotoxicity,[8],< 25%
same,cytotoxicity,[8]; 2 mg/ml,48.4%
same,cytotoxicity,[8]; 5 mg/ml,74.4%
same,"viability at 24 h, 10 μg/ml",[9]; 10 μg/ml,97%
same,"viability at 24 h, 50 μg/ml",[9]; 50 μg/ml,110%
same,"viability at 24 h, 100 μg/ml",[9]; 100 μg/ml,110%
same,"viability at 24 h, 500 μg/ml",[9]; 500 μg/ml,94.6%
same,"viability at 24 h, 1 mg/ml",[9]; 1 mg/ml,79.4%
same,"viability at 24 h, 2 mg/ml",[9]; 2 mg/ml,51.6%
same,"viability at 24 h, 5 mg/ml",[9]; 5 mg/ml,25.6%
